We go through 13 compounds from patent publication US8129371B2, “Thienopyrimidine and pyrazolopyrimidine compounds and their use as mTOR kinase and PI3 kinase inhibitors” (Wyeth LLC, priority 2007, dated 2012).

Where two headings read alike, the source gives them in different places. A value given as a limit tells only on which side of the number the result lay.

Test [1] deals with T1, PI3K (Homo sapiens, UniProt P48736).
T1 construct: PI3 Kinase γ IC50; other: PI3 Kinase γ; other: PI3 Kinase γ isoform, fluorescence polarization
T1 sequence (P48736 whole entry, canonical isoform): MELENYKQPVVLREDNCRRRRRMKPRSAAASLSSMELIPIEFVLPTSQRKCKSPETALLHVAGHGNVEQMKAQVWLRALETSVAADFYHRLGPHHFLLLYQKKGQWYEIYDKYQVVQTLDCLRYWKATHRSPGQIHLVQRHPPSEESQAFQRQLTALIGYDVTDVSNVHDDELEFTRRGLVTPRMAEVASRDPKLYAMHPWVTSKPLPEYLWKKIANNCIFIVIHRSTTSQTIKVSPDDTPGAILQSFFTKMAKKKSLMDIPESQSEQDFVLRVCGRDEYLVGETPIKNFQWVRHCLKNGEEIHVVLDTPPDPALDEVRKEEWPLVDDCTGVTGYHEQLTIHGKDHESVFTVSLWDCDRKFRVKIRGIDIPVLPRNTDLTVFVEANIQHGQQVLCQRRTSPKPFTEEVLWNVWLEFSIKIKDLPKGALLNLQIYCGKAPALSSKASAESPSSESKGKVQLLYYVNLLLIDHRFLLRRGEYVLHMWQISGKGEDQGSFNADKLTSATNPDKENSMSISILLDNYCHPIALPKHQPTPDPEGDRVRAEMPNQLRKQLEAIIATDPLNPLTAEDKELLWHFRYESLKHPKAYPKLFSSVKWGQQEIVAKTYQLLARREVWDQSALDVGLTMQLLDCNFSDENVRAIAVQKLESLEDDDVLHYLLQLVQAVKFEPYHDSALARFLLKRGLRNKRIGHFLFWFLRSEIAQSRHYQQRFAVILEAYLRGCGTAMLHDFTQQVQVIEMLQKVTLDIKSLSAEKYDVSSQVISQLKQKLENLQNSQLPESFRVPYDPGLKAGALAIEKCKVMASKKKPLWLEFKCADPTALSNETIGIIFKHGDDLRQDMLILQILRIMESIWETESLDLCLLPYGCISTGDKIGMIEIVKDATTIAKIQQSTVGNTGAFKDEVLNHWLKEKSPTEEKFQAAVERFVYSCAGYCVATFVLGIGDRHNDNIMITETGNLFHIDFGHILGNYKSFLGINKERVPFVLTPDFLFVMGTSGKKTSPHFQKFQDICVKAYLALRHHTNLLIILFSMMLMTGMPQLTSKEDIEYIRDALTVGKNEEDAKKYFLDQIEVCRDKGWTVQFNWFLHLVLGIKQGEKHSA
In words: Fluorescence polarization assay for PI3K. The format is biochemical. The note with it: read-out: PI3 Kinase γ IC50. The procedure, abridged:
(§1)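 Fluorescence-polarization competition readout: after 30–60 min of PIP2/ATP turnover in 1% DMSO, a stop mix with GST-GRP (70 nM) and red probe (10 nM) was added.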
In general terms: Polarisation of emitted light reports the rotation of a fluorescent probe.

For test [2], the target named is T2, PI3K (Homo sapiens, UniProt P42336).
T2 construct: PI3 Kinase α IC50; other: PI3 Kinase α; other: PI3 Kinase α isoform, fluorescence polarization
T2 sequence (P42336 whole entry, canonical isoform): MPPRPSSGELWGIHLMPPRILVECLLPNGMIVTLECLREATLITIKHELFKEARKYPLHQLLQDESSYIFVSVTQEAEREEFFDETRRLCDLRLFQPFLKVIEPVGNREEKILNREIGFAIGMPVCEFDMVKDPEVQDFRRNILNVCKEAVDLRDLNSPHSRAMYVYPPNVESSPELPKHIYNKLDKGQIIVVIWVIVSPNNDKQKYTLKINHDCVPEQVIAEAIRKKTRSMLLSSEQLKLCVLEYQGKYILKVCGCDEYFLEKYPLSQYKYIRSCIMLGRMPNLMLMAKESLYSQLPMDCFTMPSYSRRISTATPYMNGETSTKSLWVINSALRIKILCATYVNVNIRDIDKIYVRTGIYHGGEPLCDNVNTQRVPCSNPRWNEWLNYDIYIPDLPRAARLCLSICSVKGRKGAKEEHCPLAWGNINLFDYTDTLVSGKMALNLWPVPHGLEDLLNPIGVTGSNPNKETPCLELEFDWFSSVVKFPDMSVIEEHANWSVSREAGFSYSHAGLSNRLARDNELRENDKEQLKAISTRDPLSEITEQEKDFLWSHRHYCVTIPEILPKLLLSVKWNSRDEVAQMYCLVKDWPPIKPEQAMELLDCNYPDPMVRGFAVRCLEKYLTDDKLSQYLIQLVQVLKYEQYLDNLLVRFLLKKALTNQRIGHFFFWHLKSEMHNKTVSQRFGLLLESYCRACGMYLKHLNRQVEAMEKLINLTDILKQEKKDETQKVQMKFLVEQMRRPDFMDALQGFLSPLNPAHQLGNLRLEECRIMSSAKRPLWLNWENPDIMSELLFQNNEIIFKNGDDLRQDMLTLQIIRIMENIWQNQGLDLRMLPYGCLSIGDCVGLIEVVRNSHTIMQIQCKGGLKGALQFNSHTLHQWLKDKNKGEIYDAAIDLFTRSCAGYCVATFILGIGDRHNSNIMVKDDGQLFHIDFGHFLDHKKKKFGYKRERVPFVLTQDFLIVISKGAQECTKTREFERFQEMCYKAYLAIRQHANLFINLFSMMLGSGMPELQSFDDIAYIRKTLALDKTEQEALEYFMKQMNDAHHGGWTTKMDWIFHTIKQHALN
In words: Fluorescence polarization assay for PI3K. The format is biochemical. The note with it: read-out: PI3 Kinase α IC50. An outline of the steps:
as §1

In a further test the test system is breast line MDA468. In words: In vitro cell culture growth assay (MTS), MDA468. It is filed as cell-based. The note with it: Homo sapiens, 72 h, MDA468 cells, three days after drug treatment. The procedure, abridged:
(§2)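 The readout was MTS dye metabolism at 490 nm, taken after 3-day drug exposure that began the day after seeding. Growth was expressed as percent of vehicle-treated wells in the same plate.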

A further test addresses T3, Human mTOR (FLAG-TOR) (Homo sapiens, UniProt P42345).
T3 construct: FLAG
In words: Human mTOR kinase assay with purified enzyme, DELFIA format. It is filed as biochemical. An outline of the steps: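 DELFIA readout: Eu-anti-P(T389)-S6K antibody (40 ng/mL, 1 h) on captured His6-S6K from the stopped reaction. Kinase step used purified FLAG-tagged human mTOR with test compound in HEPES (pH 7.4)/MnCl2/DTT buffer, 2 h at room temperature (linear 1–6 h), terminated by EDTA/EGTA.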

For a further test, the system named is prostate line LNCap. Description: In vitro cell culture growth assay (MTS), LNCap. It is filed as cell-based. The conditions noted are these: Homo sapiens, LNCaP, 72 h, LNCap cells, three days after drug treatment. An outline of the steps: as §2
[3] abbreviates: PI3 Kinase γ isoform, fluorescence polarization.
Setting [4] is: PI3 Kinase α isoform, fluorescence polarization.
Setting [5] is: purified human mTOR enzyme, DELFIA format.

Turning to `O=C(Nc1ccc(-c2nc(N3C[C@@H]4C[C@H]3CO4)c3cnn(CC(F)(F)F)c3n2)cc1)OCCO` [Example 291, 2-hydroxyethyl (4-{4-[(1S,4S)-2-oxa-5-azabicyclo[2.2.1]hept-5-yl]-1-(2,2,2-trifluoroethyl)-1H-pyrazolo[3,4-d]pyrimidin-6-yl}phenyl)carbamate], the 50% inhibitory concentration (IC50) (as a rule, the point on the concentration scale where inhibition reaches its midpoint) at PI3K [1] (PI3 Kinase γ) was more than 10000 nM; on PI3K [2] (PI3 Kinase α) it was 6140 nM; with breast line MDA468, 300 nM; against Human mTOR (FLAG-TOR) it was 9 nM; in the test on prostate line LNCap it was 170 nM.

With `CNC(=O)Nc1ccc(-c2nc(N3C[C@@H]4C[C@H]3CO4)c3cnn(CC(F)(F)F)c3n2)cc1` [Example 292, 1-methyl-3-(4-{4-[(1S,4S)-2-oxa-5-azabicyclo[2.2.1]hept-5-yl]-1-(2,2,2-trifluoroethyl)-1H-pyrazolo[3,4-d]pyrimidin-6-yl}phenyl)urea], the IC50 on PI3K [1] (PI3 Kinase γ) was more than 10000 nM; at PI3K [2] (PI3 Kinase α), 2090 nM; in the test with breast line MDA468 it was 300 nM; against Human mTOR (FLAG-TOR), 5.5 nM; in the test on prostate line LNCap, 80 nM.

In the case of `O=C(Nc1ccc(-c2nc(N3C[C@@H]4C[C@H]3CO4)c3cnn(CC(F)(F)F)c3n2)cc1)Nc1cccnc1` [Example 293, 1-(4-{4-[(1S,4S)-2-oxa-5-azabicyclo[2.2.1]hept-5-yl]-1-(2,2,2-trifluoroethyl)-1H-pyrazolo[3,4-d]pyrimidin-6-yl}phenyl)-3-pyridin-3-ylurea], the 50% inhibitory concentration (IC50) on PI3K [1] (PI3 Kinase γ) was more than 10000 nM; at PI3K [2] (PI3 Kinase α), 602 nM; in the test with breast line MDA468 it was 50 nM; against Human mTOR (FLAG-TOR) it was 1.25 nM; in the test on prostate line LNCap it was 17 nM.

Take `O=C(Nc1ccc(CO)cc1)Nc1ccc(-c2nc(N3C[C@@H]4C[C@H]3CO4)c3cnn(CC(F)(F)F)c3n2)cc1` [Example 294, 1-[4-(hydroxymethyl)phenyl]-3-(4-{4-[(1S,4S)-2-oxa-5-azabicyclo[2.2.1]hept-5-yl]-1-(2,2,2-trifluoroethyl)-1H-pyrazolo[3,4-d]pyrimidin-6-yl}phenyl)urea]: the IC50 at PI3K [1] (PI3 Kinase γ) was 3020 nM; on PI3K [2] (PI3 Kinase α) it was 220 nM; in the test with breast line MDA468, 1 nM; on Human mTOR (FLAG-TOR) it was 0.775 nM; with prostate line LNCap it was less than 1 nM.

In the case of `CN1CCN(c2ccc(NC(=O)Nc3ccc(-c4nc(N5C[C@@H]6C[C@H]5CO6)c5cnn(CC(F)(F)F)c5n4)cc3)cc2)CC1` [Example 295, 1-[4-(4-methylpiperazin-1-yl)phenyl]-3-(4-{4-[(1S,4S)-2-oxa-5-azabicyclo[2.2.1]hept-5-yl]-1-(2,2,2-trifluoroethyl)-1H-pyrazolo[3,4-d]pyrimidin-6-yl}phenyl)urea], the half-inhibitory concentration (IC50) was 4670 nM on PI3K [1] (PI3 Kinase γ); 410 nM on PI3K [2] (PI3 Kinase α); 13 nM in the test with breast line MDA468; 2.33 nM against Human mTOR (FLAG-TOR); 1 nM in the test with prostate line LNCap.

As to `O=C(Nc1ccc(CCO)cc1)Nc1ccc(-c2nc(N3C[C@@H]4C[C@H]3CO4)c3cnn(CC(F)(F)F)c3n2)cc1` [Example 297, 1-[4-(2-hydroxyethyl)phenyl]-3-(4-{4-[(1S,4S)-2-oxa-5-azabicyclo[2.2.1]hept-5-yl]-1-(2,2,2-trifluoroethyl)-1H-pyrazolo[3,4-d]pyrimidin-6-yl}phenyl)urea], the 50% inhibitory concentration (IC50) is 3580 nM at PI3K [1] (setting [3]); 275 nM on PI3K [2] (setting [4]); 4 nM with breast line MDA468; 0.55 nM against Human mTOR (FLAG-TOR) (setting [5]); less than 1 nM in the test on prostate line LNCap.

Turning to `O=C(Nc1ccc(-c2nc(N3C[C@@H]4C[C@H]3CO4)c3cnn(CC(F)(F)F)c3n2)cc1)Nc1ccc(N2CCOCC2)cc1` [Example 298, 1-(4-morpholin-4-ylphenyl)-3-(4-{4-[(1S,4S)-2-oxa-5-azabicyclo[2.2.1]hept-5-yl]-1-(2,2,2-trifluoroethyl)-1H-pyrazolo[3,4-d]pyrimidin-6-yl}phenyl)urea], the half-inhibitory concentration (IC50) at PI3K [1] (setting [3]) is 10400 nM; on PI3K [2] (setting [4]), 1220 nM; in the test with breast line MDA468 it was 1 nM; on Human mTOR (FLAG-TOR) (setting [5]), 1.25 nM; with prostate line LNCap, less than 1 nM.

For the compound `O=C(Nc1ccc(-c2nc(N3C[C@@H]4C[C@H]3CO4)c3cnn(CC(F)(F)F)c3n2)cc1)Nc1ccc(N2CCOCC2)nc1` [Example 299, 1-(6-morpholin-4-ylpyridin-3-yl)-3-(4-{4-[(1S,4S)-2-oxa-5-azabicyclo[2.2.1]hept-5-yl]-1-(2,2,2-trifluoroethyl)-1H-pyrazolo[3,4-d]pyrimidin-6-yl}phenyl)urea], the half-maximal inhibitory concentration (IC50) was more than 10000 nM at PI3K [1] (setting [3]); 10200 nM at PI3K [2] (setting [4]); 42 nM in the test with breast line MDA468; 2.85 nM on Human mTOR (FLAG-TOR) (setting [5]); 10 nM in the test with prostate line LNCap.

In the case of `CN(C)CCOc1ccc(NC(=O)Nc2ccc(-c3nc(N4C[C@@H]5C[C@H]4CO5)c4cnn(CC(F)(F)F)c4n3)cc2)cc1` [Example 300, 1-{4-[2-(dimethylamino)ethoxy]phenyl}-3-(4-{4-[(1S,4S)-2-oxa-5-azabicyclo[2.2.1]hept-5-yl]-1-(2,2,2-trifluoroethyl)-1H-pyrazolo[3,4-d]pyrimidin-6-yl}phenyl)urea], the IC50 came out at 5280 nM on PI3K [1] (setting [3]); 572 nM on PI3K [2] (setting [4]); 12 nM in the test with breast line MDA468; 5.5 nM against Human mTOR (FLAG-TOR) (setting [5]); 1 nM with prostate line LNCap.

Turning to `COC1CCC(n2ncc3c(N4CC5CCC(C4)O5)nc(-c4ccc(NC(=O)Nc5ccncc5)cc4)nc32)CC1` (centres unmarked) [Example 303, 1-{4-[1-(4-methoxycyclohexyl)-4-(8-oxa-3-azabicyclo[3.2.1]oct-3-yl)-1H-pyrazolo[3,4-d]pyrimidin-6-yl]phenyl}-3-pyridin-4-ylurea], the 50% inhibitory concentration (IC50) on PI3K [1] (setting [3]) is 845 nM; at PI3K [2] (setting [4]), 164 nM; in the test with breast line MDA468 it was 1 nM; on Human mTOR (FLAG-TOR) (setting [5]) it was 0.145 nM; with prostate line LNCap, less than 1 nM.

`COC1CCC(n2ncc3c(N4CC5CCC(C4)O5)nc(-c4ccc(NC(=O)Nc5ccc(N6CCNCC6)cc5)cc4)nc32)CC1` (centres unmarked) [Example 305, 1-{4-[1-(4-methoxycyclohexyl)-4-(8-oxa-3-azabicyclo[3.2.1]oct-3-yl)-1H-pyrazolo[3,4-d]pyrimidin-6-yl]phenyl}-3-(4-piperazin-1-ylphenyl)urea]: the IC50 on PI3K [1] (setting [3]) is 1520 nM; at PI3K [2] (setting [4]), 182 nM; with breast line MDA468, 1 nM; against Human mTOR (FLAG-TOR) (setting [5]), 0.25 nM; with prostate line LNCap, less than 1 nM.

With `COC1CCC(n2ncc3c(N4CC5CCC(C4)O5)nc(-c4ccc(NC(=O)Nc5ccc(C(N)=O)cc5)cc4)nc32)CC1` (centres unmarked) [Example 306, 4-[({4-[1-(4-methoxycyclohexyl)-4-(8-oxa-3-azabicyclo[3.2.1]oct-3-yl)-1H-pyrazolo[3,4-d]pyrimidin-6-yl]phenyl}carbamoyl)amino]benzamide], the IC50 on PI3K [1] (setting [3]) was 1270 nM; on PI3K [2] (setting [4]), 88 nM; in the test with breast line MDA468, 8 nM; against Human mTOR (FLAG-TOR) (setting [5]), 0.079 nM; in the test on prostate line LNCap, less than 1 nM.

Consider `COC1CCC(n2ncc3c(N4CC5CCC(C4)O5)nc(-c4ccc(NC(=O)Nc5ccc(C(=O)NN6CCCC6)cc5)cc4)nc32)CC1` (centres unmarked) [Example 307, 4-[({4-[1-(4-methoxycyclohexyl)-4-(8-oxa-3-azabicyclo[3.2.1]oct-3-yl)-1H-pyrazolo[3,4-d]pyrimidin-6-yl]phenyl}carbamoyl)amino]-N-pyrrolidin-1-ylbenzamide], for which the IC50 was 4960 nM at PI3K [1] (setting [3]); 404 nM at PI3K [2] (setting [4]); 2 nM in the test with breast line MDA468; 0.145 nM against Human mTOR (FLAG-TOR) (setting [5]); less than 1 nM in the test with prostate line LNCap.
